Structures can show the parent of a compound that is named as a salt.

Experiment [1] relates to Target C. Put plainly: RT-qPCR canonical junction panel assay, Target C mRNA. It counts as cell-based. The conditions noted are these: Table 4, read-out: Target C IC50 (decrease in CJ mRNA levels). The procedure, abridged: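 IC50 is the concentration giving 50% CJ decrease, from a 4-parameter logistic fit of percent response; response derived from ΔΔCt against housekeeper and DMSO over a fixed ΔCt window, with canonical exon-junction qPCR in compound-treated K562 or A673 cells.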
For orientation: Quantitative PCR measures a nucleic acid by following its amplification.

Experiment [2] deals with MYB. Put plainly: HiBiT protein abundance assay, MYB (K562 HiBiT knock-in). The conditions noted are these: HiBiT knock-in K562 cells, 24 hours, top dose 10 μM. The experiment is classed as cell-based, human. The essentials: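 Steps: seed HiBiT knock-in K562 cells; add compound in 10-point 3-fold series from 10 μM final; incubate 24 h, 37 °C; add lytic HiBiT reagent, shake 5 min, wait 10 min; read luminescence. Normalize to parental K562 and DMSO controls, fit 4PL, take IC50.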
On the technique in general: HiBiT is a short tag that completes a luciferase, so light tracks the accessible tagged protein.

As for `C[C@H]1CN(c2cc(F)c3nc(-c4cc(F)c5nn(C)cc5c4)ccc3c2)C[C@H](C)N1` (single isomer, unassigned) [Compound 760], the IC50 in experiment [1] is 0.1 to 1 µM; in experiment [2], less than 0.1 µM.
The matching figures for `C[C@H]1CN(c2cc(F)c3nc(-c4cc5cn(C)nc5cc4O)ccc3c2)C[C@H](C)N1` (single isomer, unassigned) [Compound 770]: 0.1 to 1 µM and less than 0.1 µM.
The matching figures for `Cc1cn2nc(-c3ccc4cc(N5C[C@H](C)N[C@@H](C)C5)cc(F)c4n3)cc(C)c2n1` (single isomer, unassigned) [Compound 799]: 1 to 10 µM and 0.1 to 1 µM.
For `Cc1c(O)c(-c2ccc3cc(N4C[C@H](C)N[C@@H](C)C4)cc(F)c3n2)cc2cn(C)nc12` (single isomer, unassigned) [Compound 800, 2,2,2-trifluoroacetate], in that order: 0.1 to 1 µM and less than 0.1 µM.
Take `Cc1nc(-c2cc3cn(C)nc3cc2O)nc2ccc(N3C[C@H](C)N[C@@H](C)C3)cc12` (single isomer, unassigned) [Compound 806]: the half-maximal inhibitory concentration (IC50) in experiment [1] was greater than 10 µM; in experiment [2], less than 0.1 µM.
For `Cc1nc(-c2cc3cn(C)nc3c(C)c2O)nc2ccc(N3C[C@H](C)N[C@@H](C)C3)cc12` (single isomer, unassigned) [Compound 807], in that order: greater than 10 µM and less than 0.1 µM.
For `Cn1cc2cc(-c3cc4ccc(C5CCNCC5)nc4cn3)c(O)cc2n1` [Compound 104], in that order: 1 to 10 µM and 1 to 10 µM.
With `Cn1cc2cc(-c3ccc4nc(N5CC[C@H](NC6CCC6)C5)ccc4n3)c(O)cc2n1` [Compound 156], the IC50 was 0.1 to 1 µM in experiment [1] and less than 0.1 µM in experiment [2].
Turning to `CC(C)N[C@H]1CCN(c2ccc3nc(-c4cc5cn(C)nc5cc4O)ccc3n2)C1` [Compound 171], the results for the IC50 in experiment [1] and in experiment [2] were 0.1 to 1 µM and less than 0.1 µM, respectively.
The matching figures for `Cc1cn2nc(-c3ccc4nc(N5CCC(NC(C)(C)C)C5)ccc4n3)cc(C)c2n1` (stereo not drawn) [Compound 186]: less than 0.1 µM and 0.1 to 1 µM.
For `Cn1cc2cc(-c3ccc4nc(N5CC[C@H](NCC6CC6)C5)ccc4n3)c(O)cc2n1` [Compound 194], in that order: 0.1 to 1 µM and less than 0.1 µM.
The matching figures for `CN(C)C1CCN(c2ccc3nc(-c4cc5cn(C)nc5c(F)c4O)ncc3c2)CC1` [Compound 757, 5-{6-[4-(dimethylamino)piperidin-1-yl]quinazolin-2-yl}-7-fluoro-2-methylindazol-6-ol]: 1 to 10 µM and less than 0.1 µM.
In the case of `C[C@@H]1CN(c2cc(F)c3nc(-c4cc(F)c5nn(C)cc5c4)ccc3c2)C[C@H](C)N1` [Compound 758, 6-[(3R,5S)-3,5-dimethylpiperazin-1-yl]-8-fluoro-2-(7-fluoro-2-methylindazol-5-yl)quinoline], the figures for the IC50 in experiment [1] and in experiment [2] were 1 to 10 µM and 0.1 to 1 µM, respectively.
The matching figures for `C[C@@H]1CN(c2cc(F)c3nc(-c4cc5cn(C)nc5c(F)c4O)ccc3c2)C[C@H](C)N1` [Compound 763, 5-{6-[(3R,5S)-3,5-dimethylpiperazin-1-yl]-8-fluoroquinolin-2-yl}-7-fluoro-2-methylindazol-6-ol hydrochloride]: 1 to 10 µM and less than 0.1 µM.
For `C[C@@H]1CN(c2cc(F)c3nc(-c4cc5cn(C)nc5cc4O)ccc3c2)C[C@H](C)N1` [Compound 768, 5-{6-[(3R,5S)-3,5-dimethylpiperazin-1-yl]-8-fluoroquinolin-2-yl}-2-methylindazol-6-ol hydrochloride], in that order: 1 to 10 µM and less than 0.1 µM.
For `Cc1cn2cc(-c3ncc4cc(N5C[C@@H](C)N[C@@H](C)C5)ccc4n3)cc(F)c2n1` [Compound 773, 6-[(3R,5S)-3,5-dimethylpiperazin-1-yl]-2-{8-fluoro-2-methylimidazo[1,2-a]pyridin-6-yl}quinazoline], in that order: 1 to 10 µM and less than 0.1 µM.
`Cc1cn2cc(-c3nc(C(=O)NC4CCC4)c4cc(N5C[C@@H](C)N[C@@H](C)C5)ccc4n3)cc(F)c2n1` [Compound 779, N-cyclobutyl-6-[(3R,5S)-3,5-dimethylpiperazin-1-yl]-2-{8-fluoro-2-methylimidazo[1,2-a]pyridin-6-yl}quinazoline-4-carboxamide]: the half-inhibitory concentration (IC50) in experiment [1] is 1 to 10 µM; in experiment [2], less than 0.1 µM.
The matching figures for `Cc1c(O)c(-c2nc(C(N)=O)c3cc(N4C[C@H](C)N[C@@H](C)C4)ccc3n2)cc2cn(C)nc12` [Compound 796]: greater than 10 µM and less than 0.1 µM.
For `C[C@H]1CN(c2ccc3nc(-c4cc5cn(C)nc5cc4O)nc(C(N)=O)c3c2)C[C@H](C)N1` [Compound 797], in that order: greater than 10 µM and less than 0.1 µM.
For `Cc1cn2cc(-c3ncc4cc(N5C[C@H](C)N[C@@H](C)C5)ccc4n3)cc(F)c2n1` [Compound 803, 6-[(3S,5S)-3,5-dimethylpiperazin-1-yl]-2-{8-fluoro-2-methylimidazo[1,2-a]pyridin-6-yl}quinazoline], in that order: 0.1 to 1 µM and less than 0.1 µM.
Turning to `Cc1c(O)c(-c2ccc3cc(N4CCNC5(CC5)C4)cc(F)c3n2)cc2cn(C)nc12` [Compound 805, 5-(6-{4,7-diazaspiro[2.5]octan-7-yl}-8-fluoroquinolin-2-yl)-2,7-dimethylindazol-6-ol], the IC50 in experiment [1] is 0.1 to 1 µM; in experiment [2] it was less than 0.1 µM.

A word on the IC50: it is the point on the concentration scale where inhibition reaches its midpoint.
